Assay results as given in patent publication US20240197823A1, “CATIONIC ANTIMICROBIAL PEPTIDES AND USES THEREOF” (priority 2021, published 2024).
≈ marks a conversion by molar mass, not a printed value. Read-outs that look alike come from different tables or passages of the source. No end group written: not given here.

Columns and labels:
P. aeruginosa = assay: microbe, parasite or virus in culture
Experimental: (§1) Bacteria. Bacterial clinical isolates, used for initial screening and in previous studies [Greber K E et al., 2017], were anonymously provided by the clinical microbiology laboratory of the University of Pittsburgh medical Center. The panel used for secondary screening was from CDC (Table 4), with resistance profiles data. Bacteria are stored in lock-secured −80° C. freezer and typically retrieved by obtaining single colonies on agar plates prior for subsequent liquid broth cultures. Suspensions of test bacteria were prepared from log phase of growth by diluting overnight cultures at 1:100 with fresh cation-adjusted MHB (MHB2, Millipore Sigma, USA) and incubating for additional 3-4 hours. Bacteria were spun at 3000×g for 10 minutes and the pellet resuspended in test condition media (Millipore Sigma, USA) to determine bacterial turbidity using a Den-1B densitometer (Grant Instruments, USA) at 0.5 McFarland (unit of bacterial density) corresponding to […].
(§2) Antibacterial assays. To examine antibacterial activity, this study used minor modifications of a standard growth inhibition assay endorsed by the Clinical and Laboratory Standards Institute (CLSI), as previously described [Greber K E et al., 2017]. Bacteria were incubated with each of the indicated peptides in MHB2. The bacterial cells were kept in an incubator for 18 hours at 37° C., which is linked to a robotic system that feeds a plate reader every hour with one of 8×96-well plates. This set-up allows the collection of growth kinetic data at A 570 (absorbance at 570 nm) to examine growth inhibition in real time (BioTek Instruments, USA). […] To assess bactericidal properties of the peptide, the assay was modified by using 15% fetal bovine serum (FBS, for a more physiologically relevant test condition) mixed with 25% MHB2 and 60% PBS. Bacterial cells (colony forming unit/mL or CFU/mL) were enumerated after incubating treated bacteria for 3 hours and plating serially diluted samples on broth agar medium at 37° C. overnight. […] For killing kinetics, we slightly modified the bactericidal assay to examine bacterial killing at the MBC (or 2×MBC) as a function of time for up to 3 hours. Data were analyzed using GraphPad Prism software.

[1] = tested on: MDR panel of gram-negative (GNB) and -positive (GPB) bacterial isolates classified as ESKAPE pathogens
Experimental: as §1
Antibacterial assays. To examine antibacterial activity, this study used minor modifications of a standard growth inhibition assay endorsed by the Clinical and Laboratory Standards Institute (CLSI), as previously described [Greber K E et al., 2017]. Bacteria were incubated with each of the indicated peptides in MHB2. The bacterial cells were kept in an incubator for 18 hours at 37° C., which is linked to a robotic system that feeds a plate reader every hour with one of 8×96-well plates. This set-up allows the collection of growth kinetic data at A 570 (absorbance at 570 nm) to examine growth inhibition in real time (BioTek Instruments, USA). […] To assess bactericidal properties of the peptide, the assay was modified by using 15% fetal bovine serum (FBS, for a more physiologically relevant test condition) mixed with 25% MHB2 and 60% PBS. Bacterial cells (colony forming unit/mL or CFU/mL) were enumerated after incubating treated bacteria for 3 hours and plating serially diluted samples on broth agar medium at 37° C. overnight. […] Data were analyzed using GraphPad Prism software.

A. baumannii = assay: microbe, parasite or virus in culture
Experimental: as §1, §2

E. coli = assay: microbe, parasite or virus in culture
Experimental: as §1, §2

K. pneumoniae = assay: MIC growth inhibition assay in MHB2; type: cell-based, klebsiella pneumoniae; details: read-out: MIC
Experimental: as §1, §2

Enterobacter spp = assay: MIC growth inhibition assay in MHB2; type: cell-based, Enterobacter spp: EA (aerogenes), EC (cloacae)
Experimental: as §1, §2

[2] = tested on: MDR clinical strains of ESKAPE pathogens and E. coli provided by the CDC (AR isolates panel); assay: Advanced testing, MIC against CDC AR isolates panel; type: cell-based; details: colistin-resistant strains
Experimental: as §1, §2

[3] = Mouse toxicity, maximum tolerated dose; type: in vivo, CD-1 mice
Experimental: Mouse toxicity. For all animal experiments, the protocol #18071776 approved by the Institutional Animal Care and Use Committee (IACUC) of the University of Pittsburgh was used, which is consistent with the NIH guide for the care and use of laboratory animals. In a preliminary (pilot) experiment, female CD-1 mice (3 per group) weighing about 20 g were injected different doses of peptides up to 45 mpk via a lateral tail vein (IV) to determine an MTD (dose that results in no apparent morbidity or mortality). To confirm the MTD determined in the pilot study, CD-1 mice (7 per group) were randomized to receive a dose based on the preliminary MTD (IV) or PBS (100 μL). The animals were monitored for up to 7 days for morbidity and survival.

RVWRRVRRVWRRVRRVWRRV [E69]
MIC (P. aeruginosa): 2 µM

CC(C)C[C@H](NC(=O)[C@H](Cc1ccccc1)NC(=O)[C@@H]1CCCN1C(=O)[C@H](Cc1c[nH]c2ccccc12)NC(=O)[C@H](Cc1c[nH]c2ccccc12)NC(=O)[C@H](Cc1c[nH]c2ccccc12)NC(=O)[C@@H]1CCCN1C(=O)[C@H](Cc1ccccc1)NC(=O)[C@H](CCCNC(=N)N)NC(=O)[C@H](CCCNC(=N)N)NC(=O)[C@@H](N)C(C)C)C(=O)N[C@@H](CCCNC(=N)N)C(=O)N[C@@H](CCCNC(=N)N)C(=O)O [tritrpticin]
mean MIC [1]: > 10 µM

NC[C@H]1O[C@H](O[C@H]2[C@H](O)[C@@H](O[C@H]3O[C@H](CO)[C@@H](O)[C@H](N)[C@H]3O)[C@H](N)C[C@@H]2N)[C@H](N)C[C@@H]1O [Tob]
MIC (A. baumannii; strain AB-A2): 0.5 µM (≈ 0.234 µg/mL)
MIC (A. baumannii; strain AB-A3): 16 µM (≈ 7.48 µg/mL)
MIC (A. baumannii; strain AB-F8): >16 µM
MIC (A. baumannii; strain AB-F9): 2 µM (≈ 0.935 µg/mL)
MIC (E. coli; strain YDC337): >16 µM
MIC (E. coli; strain YDC748): 16 µM (≈ 7.48 µg/mL)
MIC (P. aeruginosa; strain PA01): 1 µM (≈ 0.468 µg/mL)
MIC (P. aeruginosa; strain PA14): 0.5 µM (≈ 0.234 µg/mL)
MIC (P. aeruginosa; strain PA97-5): >16 µM
MIC (P. aeruginosa; strain PA129-5): 16 µM (≈ 7.48 µg/mL)
MIC (K. pneumoniae; strain KPA5): >16 µM
MIC (K. pneumoniae; strain KPB3): >16 µM
MIC (Enterobacter spp; strain EA518 (aerogenes)): >16 µM
MIC (Enterobacter spp; strain EA596 (aerogenes)): >16 µM
MIC (Enterobacter spp; strain EC470 (cloacae)): 4 µM (≈ 1.87 µg/mL)
MIC (Enterobacter spp; strain EC560 (cloacae)): >16 µM

RWVRRVRRWVRRVRRWVRRV [E68]
cross-resistance with colistin [2]: no cross-resistance at all

RWVRRVRRWVRRVRRVVRRW [E70]
cross-resistance with colistin [2]: no cross-resistance at all

RRVWRWVRRVWRWVRR [E35]
morbidity and mortality ([3]; 7 mice, systemically at 30 mpk): no apparent morbidity and mortality
maximum tolerated dose, MTD ([3]; CD-1 mice, tail vein (IV)): 30 mpk

C[C@@H](O)[C@H]1C(=O)N2C(C(=O)O)=C(S[C@@H]3CN[C@H](C(=O)N(C)C)C3)[C@H](C)[C@H]12 [Mero]
MIC (A. baumannii; strain AB-A2): 4 µM (≈ 1.53 µg/mL)
MIC (A. baumannii; strain AB-A3): >16 µM
MIC (A. baumannii; strain AB-F8): 8 µM (≈ 3.07 µg/mL)
MIC (A. baumannii; strain AB-F9): 8 µM (≈ 3.07 µg/mL)
MIC (E. coli; strain Eco25922): 0.5 µM (≈ 0.192 µg/mL)
MIC (E. coli; strain YDC107): 1 µM (≈ 0.383 µg/mL)
MIC (E. coli; strain YDC337): 8 µM (≈ 3.07 µg/mL)
MIC (E. coli; strain YDC748): 8 µM (≈ 3.07 µg/mL)
MIC (K. pneumoniae; strain KP43816): 1 µM (≈ 0.383 µg/mL)
MIC (K. pneumoniae; strain KPA5): 2 µM (≈ 0.767 µg/mL)
MIC (K. pneumoniae; strain KPB3): 2 µM (≈ 0.767 µg/mL)
MIC (K. pneumoniae; strain KPC3): 1 µM (≈ 0.383 µg/mL)
MIC (Enterobacter spp; strain EA518 (aerogenes)): >16 µM
MIC (Enterobacter spp; strain EA596 (aerogenes)): 16 µM (≈ 6.14 µg/mL)
MIC (Enterobacter spp; strain EC470 (cloacae)): >16 µM
MIC (Enterobacter spp; strain EC560 (cloacae)): 16 µM (≈ 6.14 µg/mL)
